Measurements taken from US20240172757A1, “METHOD OF […] A […] CROP” (priority 2021, published 2024).

Legend:
soybean plant crop [1] = assay: Field test runs: acceleration of senescence/maturation and time to harvest of soybean crop after spraying at a reproductive growth stage; assay type: in vivo
Text: The solution of 2-chloroethylphosphonic acid may be prepared by mixing together 2-chloroethylphosphonic acid (known as ethephon in liquid form and obtainable from a number of sources) with a water solution or a liquid medium that is non-toxic to the particular legume desired. Most commercial sprayers are suitable for preparation and/or application of the solution described herein. To prepare the mixture, during test runs, a tank comprising a capacity of 600 gallons and an agitator was used. Continuous agitation of the mixture during preparation seems to provide best results.
In some embodiments, the 2-chloroethylphosphonic acid solution may comprise a water-soluble urea comprising approximately 46% nitrogen. A dry form of nitrogen may be part of the water solution or it may be part of the 2-chloroethylphosphonic acid solution with suitable mixing. Mixing is performed continuously in certain embodiments. During some test runs, approximately 4 pounds of urea per acre was added to about 10 gallons (83.4 pounds) of water per acre, followed by approximately 1.5 pounds of 2-chloroethylphosphonic acid per acre. In some embodiments, the 2-chloroethylphosphonic acid may also comprise a spreader-sticker. The spreader-sticker may be added, for example, at a rate of 2 ounces (0.125 pounds) per acre and may be silicone-based. A suitable silicone-based spreader-sticker, for example, is Kinetic by Helena. Other non-silicone-based sticker-spreaders may also be used.
Application of the 2-chloroethylphosphonic acid solution should be performed when the leguminous plant crop comprises at least 50% of the planted crops in the field at a seed growth stage. In some embodiments, the leguminous plant may be at an R5 growth stage when application of the solution described herein is performed. During R5, a fully developed seed pod may comprise, for example, a match-head sized seed in the pod. In some embodiments, the leguminous plant may be at growth stage R5.5, or between R5 and R6 for application. In some embodiments, application is performed when at least 50% of the planted leguminous plant crop is at an R6 reproductive growth stage, as described above. For example, R6 may be visually characterized or identified when at least 50% of the leguminous plant crop comprises at least one seed or “green bean” (in a top pod of the plant) comprising a width equal to its pod cavity. In some embodiments, the leguminous plant may be at growth stage R6.5, or at or between R6 and R7. During some test runs, senescence was achieved within 5 days after application of the solution described herein, with successful harvesting of quality crop. By way of example, prior to application, the physiological stage of the leguminous plant may be determined by inspecting the terminal (or last growing point at the top) end of the leguminous plant crop for a seed pod. Triggering maturation at the R5 growth stage may produce smaller seeds. For commercial production, triggering at R6 may be most successful to obtain more seed at a greater weight.
Application of the solution described herein may perform best at temperatures below 98° F. In some embodiments, application of the solution is performed at a temperature below about 90° F. Successful test runs, by way of example, described below were performed at 88° F.
During trial runs, soybean plant crops were planted on plot sizes ranging from 25-150 acres. Soybean plant crops were planted on soil used for rotational crops including, for example, grass crop, corn crop, or grain crop. Crops were seeded approximately 1-1.5 inches deep with a twin line planter. No other pretreatments were performed on the soil during test runs. Ground application was performed on raised beds using a flow jet capable of delivering a minimum of 10-20 gallons per acre. Raised beds were used during some test runs. Furrow irrigation was used to water the soybean plant crop, applying water to the top end of each furrow. […]

soybean plant crop [2] = assay: Composition, yield and seed quality analysis of harvested soybeans after spraying at R6; assay type: in vivo
Description: During trial applications of the solutions described herein, composition, yield and seed quality was analyzed. It was discovered that even under challenges such as hotter than normal temperatures and drought conditions, the solutions described herein allow for manipulation of the seasons for advantageous harvesting of high quality soybeans. Soybean crop (variety “Linda,” a group 5.6 determinate soybean) was planted in 8-24 row strips following a fall corn crop. Herbicide was applied at 3 pints/acre and crop was fertilized with 20 gallons of 32-0-0 per acre, followed by irrigation as needed. Soil maps indicated two different soil types (Harlingen clay and Olmito clay) in the field that bisected the field, with the second replication having slightly less Olmito clay in the treated area. As they are both components of the other, the field was consistent to visual observation. […] The growth stage of the beans at this point is still very rapid but the dry weight and nutrient accumulation begins to slow in the whole plant by R6.5 which is just 7-10 days later in many cases. Another indicator of the R6 stage is visual signs of senescence in the older leaves of the plants.
Sprayer comprising the 2-chloroethylphosphonic acid solution was prepared and applied as described above at the following rates of Table. 1. Weather conditions at the time of spraying can be found in Table 2.
The sprayed crops were monitored daily to observe phenotypic changes which included leaf color, leaf drop, pod desiccation, and any visual between treatments. After two days post-spraying, photographs were taken to show the changes in color due to senescense taking place.
Harvest was slightly delayed (about 3 days) due to unavailability of the combine, however, even with this delay, harvested crops were sent for composition and seed quality parameters. The actual harvest during these test runs was well below a soybean moisture content of a market standard 13%.
The 0.75 pounds of the 2-chloroethylphosphonic acid solution per acre rate was highest in crude fat, crude protein, digestible energy and total digestible nutrients (TDN) while being lowest in crude fiber. […] FIGS. 1 through 4 illustrate major nutritional components affected by treatment rate, where the term “a.i.” is meant to refer to the 2-chloroethylphosphonic acid solution described above. FIG. 1 is a graph of crude protein affected by treatment rate of 2-chloroethylphosphonic acid solution according to an embodiment. FIG. 2 is a graph of crude fat affected by treatment rate of 2-chloroethylphosphonic acid solution according to an embodiment. FIG. 3 is a graph of crude fiber affected by treatment rate of 2-chloroethylphosphonic acid solution according to an embodiment. FIG. 4 is a graph of total digestible nutrients affected by treatment rate of 2-chloroethylphosphonic acid solution according to an embodiment.

O=P(O)(O)CCCl [2-chloroethylphosphonic acid]
acceleration of maturation in soybean plants (soybean plant crop [1]; about 0.375 pounds per acre at the R-6 stage): significant acceleration of maturation
accelerated maturation of a soybean plant (soybean plant crop [1]; about 0.75 pounds per acre at the R-6 reproductive growth stage): Accelerated maturation
harvesting stage reached sooner than without spraying (soybean plant crop [1]; following application at a reproductive growth stage): 10 to 14 days
maturation achieved faster than when not treated (soybean plant crop [1]; in some cases, high temperature and high humidity environments): up to 40 days
days shaved off waiting times (soybean plant crop [1]; in some cases, versus typical minimum 39-day period): about 30 days
time to senescence after application (soybean plant crop [1]; some test runs): ≤ 5 days
germination rate (soybean plant crop [1]; trial runs, 25-150 acre plots): ≥ 90%
total digestible nutrients (TDN) (rank among treatments) (soybean plant crop [2]; 0.375 pounds per acre, R6): Ranked behind that in TDN
crude fat (rank among treatments) (soybean plant crop [2]; 0.75 pounds per acre, R6): highest
crude fiber (rank among treatments) (soybean plant crop [2]; 0.75 pounds per acre, R6): lowest
crude protein (rank among treatments) (soybean plant crop [2]; 0.75 pounds per acre, R6): highest
digestible energy (rank among treatments) (soybean plant crop [2]; 0.75 pounds per acre, R6): highest
total digestible nutrients (TDN) (rank among treatments) (soybean plant crop [2]; 0.75 pounds per acre, R6): highest
overall nutrients versus untreated (soybean plant crop [2]; all three treatments (0.375, 0.75, 1.125 pounds per acre)): improved overall nutrients
